Test results from US20230278972A1, “SUBSTITUTED HALOALKYL SULFONANILIDE HERBICIDES” (FMC Corporation, priority 2020, published 2023).

What was measured:
Format in all cases: in vivo
[1] = tested on: ducksalad (Heteranthera limosa); assay: Test B1 flooded paddy test, ducksalad; conditions: 250 g ai/ha, Flood, applied to paddy water, 2-leaf stage, visually evaluated after 10 to 14 days
Excerpt: (§1) A dash (-) response means no test result.

[2] = tested on: goosegrass (Eleusine indica); assay: Test A1 postemergence, goosegrass; conditions: Postemergence
Excerpt: (§2) Seeds of plant species selected from, blackgrass (Alopecurus myosuroides), corn (Zea mays), Foxtail, Giant (giant foxtail, Setaria faberi), goosegrass (Eleusine indica), kochia (Bassia scoparia), Oat, Wild (wild oat, Avena fatua), Pigweed, Palmer (palmer amaranth, palmer pigweed, Amaranthus palmeri), ragweed (common ragweed, Ambrosia artemisiifolia), Ryegrass, Italian (Italian ryegrass, Lolium multiflorum), soybean (Glycine max), and wheat (Triticum aestivum) were planted into a blend of loam soil and sand and treated preemergence with a directed soil spray using test chemicals formulated in a non-phytotoxic solvent mixture which included a surfactant. At the same time, plants selected from these crop and weed species and also galium (catchweed bedstraw, Galium aparine) and horseweed (Erigeron canadensis) were planted in pots containing the same blend of loam soil and sand and treated with postemergence applications of test chemicals formulated in the same manner. Plants ranged in height from 2 to 10 cm and were in the one- to two-leaf stage for the postemergence treatment. […] A dash (-) response means no test result.

[3] = tested on: Pigweed, Palmer (palmer amaranth, palmer pigweed, Amaranthus palmeri); assay: Test A1 preemergence, Pigweed, Palmer
Excerpt: as §2

[4] = tested on: Oat, Wild (wild oat, Avena fatua); assay: Test A1 preemergence, Oat, Wild
Excerpt: as §2

[5] = tested on: galium (catchweed bedstraw, Galium aparine); assay: Test A1 postemergence, galium; conditions: Postemergence
Excerpt: as §2

[6] = tested on: Ryegrass, Italian (Italian ryegrass, Lolium multiflorum); assay: Test A1 postemergence, Ryegrass, Italian; conditions: Postemergence
Excerpt: as §2

[7] = tested on: Oat, Wild (wild oat, Avena fatua); assay: Test A1 postemergence, Oat, Wild; conditions: Postemergence
Excerpt: as §2

[8] = tested on: blackgrass (Alopecurus myosuroides); assay: Test A1 preemergence, blackgrass
Excerpt: as §2

[9] = tested on: Pigweed, Palmer (palmer amaranth, palmer pigweed, Amaranthus palmeri); assay: Test A1 postemergence, Pigweed, Palmer; conditions: Postemergence
Excerpt: as §2

[10] = tested on: soybean (Glycine max); assay: Test A1 preemergence, soybean
Excerpt: as §2

[11] = tested on: ragweed (common ragweed, Ambrosia artemisiifolia); assay: Test A1 preemergence, ragweed
Excerpt: as §2

[12] = tested on: Foxtail, Giant (giant foxtail, Setaria faberi); assay: Test A1 postemergence, Foxtail, Giant; conditions: Postemergence
Excerpt: as §2

[13] = tested on: wheat (Triticum aestivum); assay: Test A1 preemergence, wheat
Excerpt: as §2

[14] = tested on: barnyardgrass (Echinochloa crus-galli); assay: Test B1 flooded paddy test, barnyardgrass; conditions: 250 g ai/ha, Flood, applied to paddy water, 2-leaf stage, visually evaluated after 10 to 14 days
Excerpt: as §1

[15] = tested on: blackgrass (Alopecurus myosuroides); assay: Test A1 postemergence, blackgrass; conditions: Postemergence, 0 to 100 scale (0 no effect, 100 complete control)
Excerpt: as §2

[16] = tested on: corn (Zea mays); assay: Test A1 preemergence, corn
Excerpt: as §2

[17] = tested on: soybean (Glycine max); assay: Test A1 postemergence, soybean; conditions: Postemergence
Excerpt: as §2

[18] = tested on: goosegrass (Eleusine indica); assay: Test A1 preemergence, goosegrass
Excerpt: as §2

[19] = tested on: rice (Oryza sativa); assay: Test B1 flooded paddy test, rice; conditions: 250 g ai/ha, Flood, applied to paddy water, 2-leaf stage, visually evaluated after 10 to 14 days
Excerpt: as §1

[20] = tested on: ragweed (common ragweed, Ambrosia artemisiifolia); assay: Test A1 postemergence, ragweed; conditions: Postemergence
Excerpt: as §2

[21] = tested on: Foxtail, Giant (giant foxtail, Setaria faberi); assay: Test A1 preemergence, Foxtail, Giant
Excerpt: as §2

[22] = tested on: wheat (Triticum aestivum); assay: Test A1 postemergence, wheat; conditions: Postemergence
Excerpt: as §2

[23] = tested on: Ryegrass, Italian (Italian ryegrass, Lolium multiflorum); assay: Test A1 preemergence, Ryegrass, Italian
Excerpt: as §2

[24] = tested on: corn (Zea mays); assay: Test A1 postemergence, corn; conditions: Postemergence
Excerpt: as §2

[25] = tested on: kochia (Bassia scoparia); assay: Test A1 postemergence, kochia; conditions: Postemergence
Excerpt: as §2

[26] = tested on: kochia (Bassia scoparia); assay: Test A1 preemergence, kochia
Excerpt: as §2

[27] = 31 g ai/ha, 0 to 100 scale (0 no effect, 100 complete control), 10 days
[28] = 31 g ai/ha, 0 to 100 scale (0 no effect, 100 complete control)
[29] = 125 g ai/ha, 0 to 100 scale, 0 no effect, 100 complete control

## CCC1ON=C(c2cc(N(COC(=O)C(C)(C)C)S(=O)(=O)C(F)(F)F)c(C)cc2C)C1CC (centres unmarked) [Compound 347]
[1]
  Plant response rating, Ducksalad (0 to 100 scale, 0 is no effect, 100 is complete control): 55
[2]; [27]
  Plant response rating, Goosegrass: 0
[2]; 125 g ai/ha, 0 to 100 scale
  Plant response rating, Goosegrass: 40
[3]; [28]
  Plant response rating, Pigweed, Palmer: 20
[3]; [29]
  Plant response rating, Pigweed, Palmer: 50
[4]; [28]
  Plant response rating, Oat, Wild: 0
[4]; [29]
  Plant response rating, Oat, Wild: 0
[5]; [27]
  Plant response rating, Galium: 30
[5]; 125 g ai/ha, 0 to 100 scale
  Plant response rating, Galium: 100
[6]; [27]
  Plant response rating, Ryegrass, Italian: 0
[6]; 125 g ai/ha, 0 to 100 scale
  Plant response rating, Ryegrass, Italian: 60
[7]; [27]
  Plant response rating, Oat, Wild: 10
[7]; 125 g ai/ha, 0 to 100 scale
  Plant response rating, Oat, Wild: 20
[8]; [28]
  Plant response rating, Blackgrass: 10
[8]; [29]
  Plant response rating, Blackgrass: 30
[9]; [27]
  Plant response rating, Pigweed, Palmer: 20
[9]; 125 g ai/ha, 0 to 100 scale
  Plant response rating, Pigweed, Palmer: 50
[10]; [28]
  Plant response rating, Soybean: 0
[10]; [29]
  Plant response rating, Soybean: 0
[11]; [28]
  Plant response rating, Ragweed: 0
[11]; [29]
  Plant response rating, Ragweed: 0
[12]; [27]
  Plant response rating, Foxtail, Giant: 20
[12]; 125 g ai/ha, 0 to 100 scale
  Plant response rating, Foxtail, Giant: 30
[13]; [28]
  Plant response rating, Wheat: 0
[13]; [29]
  Plant response rating, Wheat: 20
[14]
  Plant response rating, Barnyardgrass (0 to 100 scale, 0 is no effect, 100 is complete control): 95
[15]; 31 g ai/ha, 10 days
  Plant response rating, Blackgrass: 0
[15]; 125 g ai/ha
  Plant response rating, Blackgrass: 30
[16]; [28]
  Plant response rating, Corn: 0
[16]; [29]
  Plant response rating, Corn: 0
[17]; [27]
  Plant response rating, Soybean: 40
[17]; 125 g ai/ha, 0 to 100 scale
  Plant response rating, Soybean: 50
[18]; [28]
  Plant response rating, Goosegrass: 10
[18]; [29]
  Plant response rating, Goosegrass: 60
[19]
  Plant response rating, Rice (0 to 100 scale, 0 is no effect, 100 is complete control): 25
[20]; [27]
  Plant response rating, Ragweed: 40
[20]; 125 g ai/ha, 0 to 100 scale
  Plant response rating, Ragweed: 70
[21]; [28]
  Plant response rating, Foxtail, Giant: 0
[21]; [29]
  Plant response rating, Foxtail, Giant: 60
[22]; [27]
  Plant response rating, Wheat: 0
[22]; 125 g ai/ha, 0 to 100 scale
  Plant response rating, Wheat: 40
[23]; [28]
  Plant response rating, Ryegrass, Italian: 0
[23]; [29]
  Plant response rating, Ryegrass, Italian: 0
[24]; [27]
  Plant response rating, Corn: 0
[24]; 125 g ai/ha, 0 to 100 scale
  Plant response rating, Corn: 10
[25]; [27]
  Plant response rating, Kochia: 10
[25]; 125 g ai/ha, 0 to 100 scale
  Plant response rating, Kochia: 60
[26]; [28]
  Plant response rating, Kochia: 0
[26]; [29]
  Plant response rating, Kochia: 50

## CCc1cc(C)c(NS(=O)(=O)C(F)(F)F)cc1C1=NOC2CCCC12 (centres unmarked) [Compound 305]
[1]
  Plant response rating, Ducksalad (0 to 100 scale, 0 is no effect, 100 is complete control): 90
[2]; [27]
  Plant response rating, Goosegrass: 10
[2]; 125 g ai/ha, 0 to 100 scale
  Plant response rating, Goosegrass: 80
[3]; [28]
  Plant response rating, Pigweed, Palmer: 40
[3]; [29]
  Plant response rating, Pigweed, Palmer: 60
[4]; [28]
  Plant response rating, Oat, Wild: 20
[4]; [29]
  Plant response rating, Oat, Wild: 60
[5]; [27]
  Plant response rating, Galium: 50
[5]; 125 g ai/ha, 0 to 100 scale
  Plant response rating, Galium: 60
[6]; [27]
  Plant response rating, Ryegrass, Italian: 0
[6]; 125 g ai/ha, 0 to 100 scale
  Plant response rating, Ryegrass, Italian: 40
[7]; [27]
  Plant response rating, Oat, Wild: 20
[7]; 125 g ai/ha, 0 to 100 scale
  Plant response rating, Oat, Wild: 20
[8]; [28]
  Plant response rating, Blackgrass: 10
[8]; [29]
  Plant response rating, Blackgrass: 40
[9]; [27]
  Plant response rating, Pigweed, Palmer: 0
[9]; 125 g ai/ha, 0 to 100 scale
  Plant response rating, Pigweed, Palmer: 40
[10]; [28]
  Plant response rating, Soybean: 0
[10]; [29]
  Plant response rating, Soybean: 40
[11]; [28]
  Plant response rating, Ragweed: 0
[11]; [29]
  Plant response rating, Ragweed: 20
[12]; [27]
  Plant response rating, Foxtail, Giant: 20
[12]; 125 g ai/ha, 0 to 100 scale
  Plant response rating, Foxtail, Giant: 60
[13]; [28]
  Plant response rating, Wheat: 20
[13]; [29]
  Plant response rating, Wheat: 40
[14]
  Plant response rating, Barnyardgrass (0 to 100 scale, 0 is no effect, 100 is complete control): 90
[15]; 31 g ai/ha, 10 days
  Plant response rating, Blackgrass: 0
[15]; 125 g ai/ha
  Plant response rating, Blackgrass: 0
[16]; [28]
  Plant response rating, Corn: 10
[16]; [29]
  Plant response rating, Corn: 90
[17]; [27]
  Plant response rating, Soybean: 10
[17]; 125 g ai/ha, 0 to 100 scale
  Plant response rating, Soybean: 50
[18]; [28]
  Plant response rating, Goosegrass: 90
[18]; [29]
  Plant response rating, Goosegrass: 90
[19]
  Plant response rating, Rice (0 to 100 scale, 0 is no effect, 100 is complete control): 0
[20]; [27]
  Plant response rating, Ragweed: 0
[20]; 125 g ai/ha, 0 to 100 scale
  Plant response rating, Ragweed: 60
[21]; [28]
  Plant response rating, Foxtail, Giant: 20
[21]; [29]
  Plant response rating, Foxtail, Giant: 90
[22]; [27]
  Plant response rating, Wheat: 50
[22]; 125 g ai/ha, 0 to 100 scale
  Plant response rating, Wheat: 60
[23]; [28]
  Plant response rating, Ryegrass, Italian: 40
[23]; [29]
  Plant response rating, Ryegrass, Italian: 90
[24]; [27]
  Plant response rating, Corn: 0
[24]; 125 g ai/ha, 0 to 100 scale
  Plant response rating, Corn: 0
[25]; [27]
  Plant response rating, Kochia: 0
[25]; 125 g ai/ha, 0 to 100 scale
  Plant response rating, Kochia: 10
[26]; [28]
  Plant response rating, Kochia: 0
[26]; [29]
  Plant response rating, Kochia: 40
